# Data: paper PMC10401651, “Characterization of Uranyl (UO2^2+) Ion Binding to Amyloid Beta (Aβ) Peptides: Effects on Aβ Structure and Aggregation” (ACS Chemical Neuroscience, 2023)
# “And” between values parts separate entries of the source, which are not always exact repeats. Equal entries are not always repeated. Where two headings read alike, the source gives them in different places.
# What was measured:
# Aβ40 peptides [1] = target: T1, Aβ40 peptides (Homo sapiens, UniProt P05067); experiment: CD spectroscopy on the Aβ40 secondary structure
# T1 construct: namely, the Aβ40 peptide; purchased AlexoTech AB (Umeå, Sweden); host or cells: recombinant
# T1 sequence (P05067 672-711 limits assumed): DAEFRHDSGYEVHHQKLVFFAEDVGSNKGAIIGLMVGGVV
# Experimental: The CD spectra for Aβ40 monomers in aqueous buffer display spectra with minima around 196–198 nm (Figure 5B,E), which is typical for a random coil conformation. […] The difference spectrum is not conclusive but might represent β-sheet conformation (Figure 5C).
# CD measurements were carried out on a Chirascan CD spectrometer from Applied Photophysics Ltd. (U.K). Samples containing 600 μL of 10 μM Aβ40 peptide in 20 mM phosphate buffer, at either pH 7.3 or pH 5.1, were placed in a quartz cuvette with a 2 mm pathlength. CD spectra were recorded at 20 °C between 192 and 250 nm using steps of 0.5 nm and a sampling time of 5 s per data point. […] All data was processed with the Chirascan Pro-Data v.4.4.1 software (Applied Photophysics Ltd., U.K.), including smoothing with a ten-point smoothing filter. 50 mM SDS detergent was added to some of the samples as SDS micelles constitute a simple model for bio-membranes.[125],[126] Aβ peptides are known to insert their central and C-terminal segments as α-helices into SDS micelles, while the N-terminal Aβ segment remains unstructured outside the micelle surface.[19],[125] Because the critical micelle concentration for SDS is 8.2 mM in water at 25 °C,[152] micelles clearly formed under the experimental conditions. With approximately 62–65 SDS molecules per micelle,[156] 50 mM SDS yields a micelle concentration slightly below 1 mM, i.e., much higher than the concentration of Aβ peptides. This means that each micelle will generally contain no more than one Aβ peptide, which effectively prevents Aβ aggregation and ensures that uranyl interactions are with monomeric Aβ peptides. […] Even though 50 mM SDS would efficiently denature most folded proteins, such denaturing effects are not relevant for small intrinsically disordered peptides such as Aβ (in monomeric form).
# [2] = target: T2, Aβ40 (H6A, H13A, and H14A) triple-mutant, Aβ40 (NoHis) (Homo sapiens, UniProt P05067, H677A/H684A/H685A); experiment: Binding affinity via Tyr10 fluorescence quenching, Aβ40 (NoHis) mutant; settings: 20 μM Aβ40 (NoHis)
# T2 construct: the Aβ40 (H6A, H13A, and H14A) triple-mutant; purchased AlexoTech AB (Umeå, Sweden); host or cells: recombinant
# T2 sequence (P05067 672-711 H677A/H684A/H685A): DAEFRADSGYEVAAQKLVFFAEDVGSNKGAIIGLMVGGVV
# Text: Synthetic lyophilized wt Aβ (1–42) peptides, abbreviated as Aβ42, with the primary sequence DAEFR5HDSGY10EVHHQ15KLVFF20AEDVG25SNKGA30IIGLM35VGGVV40IA, were purchased from JPT Peptide Technologies (Germany). Two recombinant Aβ variants were purchased as lyophilized powder from AlexoTech AB (Umeå, Sweden), namely, the Aβ40 peptide and the Aβ40 (H6A, H13A, and H14A) triple-mutant, which in the following is referred to as the Aβ40 (NoHis) mutant. The Aβ40 peptide was also purchased uniformly single-labeled with ^15N isotopes. All Aβ40 peptide variants were stored at −80 °C until use. Before measurements, they were dissolved in 10 mM NaOH and then sonicated in an ice bath for 5 min to avoid pre-formed aggregates. The samples were then diluted in either sodium phosphate buffer at pH 7.3 or in MES buffer at pH 7.3 or 5.1. The peptide concentrations were initially estimated from the weight of the dry powder and then more accurately determined with a NanoDrop spectrophotometer.
# Fluorescence measurements were conducted on a Jobin Yvon Horiba Fluorolog 3 fluorescence spectrophotometer (Longjumeau, France) using a quartz cuvette with a 4 mm path length. The fluorescence emission intensity of samples containing 20 μM Aβ peptides in 20 mM MES buffer, at either pH 7.3 or pH 5.5 and without or with 50 mM SDS detergent present, was measured at 305 nm (excitation wavelength 276 nm) at 20 °C. […] Apparent dissociation constants (KD^App) were determined by fitting the plots to eq 2 [drawing 2] 2 where I0 is the initial fluorescence intensity with no added UO2^2+ ions, I∞ is the steady-state intensity at the end of the titration, [Ab] is the protein concentration, and [U] is the concentration of added UO2^2+ ions.[121],[160]
# [3] = target: T2, Aβ40 (H6A, H13A, and H14A) triple-mutant, Aβ40 (NoHis); experiment: as above; settings: 20 μM Aβ40 (NoHis); remark: listed apart in the source
# Aβ40 peptides [4] = target: T1, Aβ40 peptides; experiment: ThT fluorescence measurements of Aβ40 aggregation kinetics; assay type: biochemical; settings: for t1/2 (aggregation halftime): 15 h; for ΔThT (increase in ThT fluorescence): 20 μM Aβ40, pH 7.3, 37 °C, end of 15 h
# Experimental: Fitting eq 1 to the ThT fluorescence curves in Figure 1 produced the kinetic parameters Tlag and t1/2 (Table 1). […] The two samples with 0 and 0.04 μM uranyl both have aggregation half-times of around 3 h and lag times of around 2 h under the experimental conditions (Table 1). The aggregation of the 0.2 μM uranyl sample is clearly slower, with a half-time of almost 7 h and a lag time of around 5 h.
# Thioflavin T is a benzothiazole dye that increases in fluorescence upon binding to amyloid aggregates[116] and is therefore used to monitor the formation of amyloid aggregates. The ThT dye was excited at 440 nm, and ThT fluorescence emission at 480 nm was measured every 5 min. Before each measurement, the plate was shaken in orbital mode for 140 s at 200 rpm. The samples were incubated for a total of 15 h, and the assay was repeated three times with four replicates of each condition. To determine kinetic aggregation parameters, the data was fitted to eq 1: [drawing 1] 1 Here, F0 and F∞ are the intercepts of the initial and final fluorescence intensity baselines, m0 and m∞ are the slopes of the initial and final baselines, t1/2 is the time needed to reach halfway through the elongation phase (i.e., aggregation half-time), and τ is the elongation time constant.[116]
# [5] = 0.04 μM uranyl acetate, 20 μM Aβ40, 20 mM MES pH 7.3, 37 °C
# [6] = 0.2 μM uranyl acetate, 20 μM Aβ40, 20 mM MES pH 7.3, 37 °C
# [7] = 0.2 μM uranyl acetate, 20 μM Aβ40, 20 mM MES pH 7.3, 37 °C, listed as uranyl
compound,measurement,setting,value
"CC(=O)[O-].CC(=O)[O-].[O]=[U+2]=[O] [uranyl ions, uranyl acetate]",structural transition of Aβ40 (CD),"Aβ40 peptides [1]; 50 mM SDS micelles, pH 5.1, 10 μM Aβ40",structural conversion from α-helix to a random coil
same,changes in the Aβ40 CD spectrum,"Aβ40 peptides [1]; 50 mM SDS micelles, pH 7.3, 10 μM Aβ40",no changes at all
same,structural transition of Aβ40 (CD),"Aβ40 peptides [1]; aqueous buffer pH 5.1, 10 μM Aβ40, 2-256 μM uranyl acetate, 20 °C",conversion from random coil to β-sheet
same,"structural effect on Aβ40 (CD), compared with pH 5.1","Aβ40 peptides [1]; aqueous buffer pH 7.3, 10 μM Aβ40, 2-256 μM uranyl acetate, 20 °C",weaker
same,Kd,"[2]; pH 7.3 + 50 mM SDS, read-out: KD^App, single replicates",119 µM and 124 µM and 116 µM
same,Kd,"[2]; pH 7.3 + 50 mM SDS, three replicates, read-out: KD^App, average",120 ± 4 µM
same,Kd,"[2]; pH 7.3, 20 mM MES, read-out: KD^App, single replicates",62 µM and 86 µM and 79 µM
same,Kd,"[2]; pH 7.3, 20 mM MES, three replicates, read-out: KD^App, average",76 ± 11 µM
same,Kd,"[3]; pH 5.1 + 50 mM SDS, read-out: KD^App, single replicates",22.3 µM and 30.7 µM and 27.9 µM
same,Kd,"[3]; pH 5.1 + 50 mM SDS, three replicates, read-out: KD^App, average",27 ± 4 µM
same,Kd,"[3]; pH 5.1, 20 mM MES, read-out: KD^App, single replicates",2.3 µM and 2.8 µM and 4 µM
same,Kd,"[3]; pH 5.1, 20 mM MES, three replicates, read-out: KD^App, average",3 ± 1 µM
same,Tlag (lag time),Aβ40 peptides [4]; [5],2.0 ± 1.1 h
same,t1/2 (aggregation halftime),Aβ40 peptides [4]; [5],around 3 h
same,Tlag (lag time),"Aβ40 peptides [4]; 0.04 μM uranyl acetate, 20 μM Aβ40, 20 mM MES pH 7.3, 37 °C, listed as uranyl",around 2 h
same,ΔThT (increase in ThT fluorescence),Aβ40 peptides [4]; 0.04 μM uranyl acetate,1286 a.u.
same,Tlag (lag time),Aβ40 peptides [4]; [6],5.2 ± 0.9 h
same,t1/2 (aggregation halftime),Aβ40 peptides [4]; [6],6.7 ± 1.4 h
same,t1/2 (aggregation halftime),Aβ40 peptides [4]; [7],~7 h
same,Tlag (lag time),Aβ40 peptides [4]; [7],around 5 h
same,ΔThT (increase in ThT fluorescence),Aβ40 peptides [4]; 0.2 μM uranyl acetate,958 a.u.
same,ΔThT (increase in ThT fluorescence),Aβ40 peptides [4]; 0.4 μM uranyl acetate,101 a.u.
same,"lag time, visually estimated","Aβ40 peptides [4]; 0.4 μM uranyl, 20 μM Aβ40, 20 mM MES pH 7.3, 37 °C",approximately 9 h
same,ΔThT (increase in ThT fluorescence),Aβ40 peptides [4]; 2 μM uranyl acetate,0 a.u.
same,ΔThT (increase in ThT fluorescence),Aβ40 peptides [4]; 20 μM uranyl acetate,0 a.u.
same,Aβ40 aggregation seen in ThT curves,"Aβ40 peptides [4]; 2 and 20 μM uranyl, 20 μM Aβ40, 15 h",no obvious signs of aggregation after 15 h
